Active and inactive are the calls of the source. The calls are words filed in the database; no cut-off is given here.
Experiments:
[1] = biological target: RAC-alpha serine/threonine-protein kinase (Homo sapiens) (UniProt P31749); experiment: Induction of Akt phosphorylation in human Huh7 cells up to 50 uM measured after 2 hrs by Western blot method; format: cell-based
[2] = biological target: T1, Tyrosine-protein phosphatase non-receptor type 1 (Homo sapiens) (UniProt P18031); experiment: Inhibition of PTP1B in human Huh7 cells assessed as increase in insulin-stimulated Akt phosphorylation preincubated for 1 to 2 hrs followed by insulin addition measured after 5 mins by Western blot method; format: cell-based
T1 sequence (whole entry): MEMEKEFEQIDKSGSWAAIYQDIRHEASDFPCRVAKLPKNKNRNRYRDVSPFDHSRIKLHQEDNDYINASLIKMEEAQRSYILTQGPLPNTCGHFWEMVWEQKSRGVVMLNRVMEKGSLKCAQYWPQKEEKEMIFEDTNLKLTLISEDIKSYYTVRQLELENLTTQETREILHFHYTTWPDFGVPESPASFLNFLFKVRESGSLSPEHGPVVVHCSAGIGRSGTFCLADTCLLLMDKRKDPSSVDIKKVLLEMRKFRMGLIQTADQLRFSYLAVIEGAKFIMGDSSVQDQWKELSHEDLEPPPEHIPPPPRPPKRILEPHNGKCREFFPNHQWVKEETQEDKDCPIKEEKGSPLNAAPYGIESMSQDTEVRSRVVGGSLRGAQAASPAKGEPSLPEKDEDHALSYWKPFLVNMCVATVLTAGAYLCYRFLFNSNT

[3] = biological target: RAC-alpha serine/threonine-protein kinase (Homo sapiens) (UniProt P31749); experiment: Induction of Akt phosphorylation in human Huh7 cells measured after 2 hrs by Western blot method; format: cell-based
[4] = biological target: Dual specificity protein phosphatase 3 (Homo sapiens, UniProt P51452); experiment: Inhibition of human recombinant VHR expressed in Escherichia coli using pNPP as substrate preincubated for 10 mins followed by substrate addition measured after 30 mins
[5] = biological target: T2, Receptor-type tyrosine-protein phosphatase C (Homo sapiens, UniProt P08575); experiment: Inhibition of human recombinant CD45 using pNPP as substrate preincubated for 10 mins followed by substrate addition measured after 30 mins
T2 sequence (P08575 whole entry): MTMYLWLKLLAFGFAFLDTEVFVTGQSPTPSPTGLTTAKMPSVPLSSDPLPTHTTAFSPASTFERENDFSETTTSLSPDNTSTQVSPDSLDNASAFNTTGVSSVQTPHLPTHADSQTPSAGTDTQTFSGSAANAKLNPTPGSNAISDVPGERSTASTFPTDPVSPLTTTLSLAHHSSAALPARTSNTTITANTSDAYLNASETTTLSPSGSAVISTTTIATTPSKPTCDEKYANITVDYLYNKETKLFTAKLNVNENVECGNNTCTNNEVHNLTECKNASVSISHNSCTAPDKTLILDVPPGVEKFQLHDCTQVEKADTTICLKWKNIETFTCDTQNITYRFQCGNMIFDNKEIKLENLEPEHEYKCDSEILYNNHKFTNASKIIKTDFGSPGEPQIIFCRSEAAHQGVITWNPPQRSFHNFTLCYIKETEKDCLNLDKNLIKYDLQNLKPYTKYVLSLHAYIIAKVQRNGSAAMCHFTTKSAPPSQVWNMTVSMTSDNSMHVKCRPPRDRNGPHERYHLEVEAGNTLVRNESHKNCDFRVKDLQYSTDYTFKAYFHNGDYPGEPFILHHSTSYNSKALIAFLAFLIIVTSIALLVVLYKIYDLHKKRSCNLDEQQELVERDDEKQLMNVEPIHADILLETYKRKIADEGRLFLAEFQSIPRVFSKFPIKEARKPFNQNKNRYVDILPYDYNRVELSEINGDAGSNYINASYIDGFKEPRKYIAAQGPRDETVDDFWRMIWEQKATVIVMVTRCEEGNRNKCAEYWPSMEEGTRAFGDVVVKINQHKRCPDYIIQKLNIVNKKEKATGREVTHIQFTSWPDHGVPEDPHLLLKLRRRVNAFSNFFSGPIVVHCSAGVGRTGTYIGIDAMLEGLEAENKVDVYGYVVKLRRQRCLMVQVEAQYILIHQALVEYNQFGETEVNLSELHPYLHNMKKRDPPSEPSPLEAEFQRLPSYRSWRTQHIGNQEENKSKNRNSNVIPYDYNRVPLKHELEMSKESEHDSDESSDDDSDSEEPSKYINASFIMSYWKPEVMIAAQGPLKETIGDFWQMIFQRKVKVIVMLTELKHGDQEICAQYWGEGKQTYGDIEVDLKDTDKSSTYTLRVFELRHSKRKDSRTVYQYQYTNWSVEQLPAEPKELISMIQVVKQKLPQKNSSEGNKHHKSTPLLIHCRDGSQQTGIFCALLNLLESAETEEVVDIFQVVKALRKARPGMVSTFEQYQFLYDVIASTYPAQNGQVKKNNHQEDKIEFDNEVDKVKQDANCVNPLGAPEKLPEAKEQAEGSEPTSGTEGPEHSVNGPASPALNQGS

[6] = biological target: T3, Tyrosine-protein phosphatase non-receptor type 2 (Homo sapiens, UniProt P17706); experiment: Inhibition of human recombinant TCPTP (1 to 317 residues) expressed in Escherichia coli using pNPP as substrate preincubated for 10 mins followed by substrate addition measured after 30 mins
T3 sequence (P17706 whole entry): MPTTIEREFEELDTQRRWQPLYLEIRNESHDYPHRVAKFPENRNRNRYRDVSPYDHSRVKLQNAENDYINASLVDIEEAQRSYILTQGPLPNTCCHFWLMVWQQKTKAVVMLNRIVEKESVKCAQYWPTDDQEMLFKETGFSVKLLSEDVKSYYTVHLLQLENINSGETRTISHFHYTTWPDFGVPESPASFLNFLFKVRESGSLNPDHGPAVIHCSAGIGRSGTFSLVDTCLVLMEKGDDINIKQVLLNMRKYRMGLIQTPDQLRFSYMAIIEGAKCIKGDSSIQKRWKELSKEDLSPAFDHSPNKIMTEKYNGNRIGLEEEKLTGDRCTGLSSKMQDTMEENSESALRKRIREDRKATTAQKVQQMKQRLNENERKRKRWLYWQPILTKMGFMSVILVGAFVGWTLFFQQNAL

[7] = biological target: T4, Tyrosine-protein phosphatase non-receptor type 1 (Homo sapiens, UniProt P18031); experiment: Inhibition of human recombinant PTP1B (1 to 322 residues) expressed in Escherichia coli using pNPP as substrate preincubated for 10 mins followed by substrate addition measured after 30 mins
T4 sequence (P18031 whole entry): T1 sequence (whole entry)

[8] = biological target: RAC-alpha serine/threonine-protein kinase (Homo sapiens) (UniProt P31749); experiment: Activation of AKT in human Huh7 cells assessed as increase in insulin-stimulated Akt phosphorylation preincubated for 1 to 2 hrs followed by insulin addition measured after 5 mins by Western blot method; format: cell-based

Chain of RAC-alpha serine/threonine-protein kinase (Homo sapiens) (P31749 whole entry): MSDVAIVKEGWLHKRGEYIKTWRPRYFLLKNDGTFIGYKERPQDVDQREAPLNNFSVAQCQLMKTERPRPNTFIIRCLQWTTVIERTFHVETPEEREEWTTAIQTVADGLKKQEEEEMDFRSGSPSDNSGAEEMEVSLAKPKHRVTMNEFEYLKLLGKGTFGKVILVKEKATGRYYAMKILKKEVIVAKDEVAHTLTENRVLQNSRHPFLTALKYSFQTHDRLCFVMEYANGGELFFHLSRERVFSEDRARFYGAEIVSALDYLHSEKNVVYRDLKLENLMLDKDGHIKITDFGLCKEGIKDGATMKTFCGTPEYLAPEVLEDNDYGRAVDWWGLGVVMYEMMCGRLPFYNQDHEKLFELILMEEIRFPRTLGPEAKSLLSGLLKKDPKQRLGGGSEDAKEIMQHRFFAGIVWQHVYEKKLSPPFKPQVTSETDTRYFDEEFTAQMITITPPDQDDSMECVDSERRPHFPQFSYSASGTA
Chain of Dual specificity protein phosphatase 3 (P51452 whole entry): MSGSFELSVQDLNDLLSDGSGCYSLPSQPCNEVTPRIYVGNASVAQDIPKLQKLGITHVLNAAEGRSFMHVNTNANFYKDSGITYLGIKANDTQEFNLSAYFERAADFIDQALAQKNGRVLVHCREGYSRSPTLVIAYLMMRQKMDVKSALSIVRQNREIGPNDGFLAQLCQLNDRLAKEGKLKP

Activity [1] | inhibition [2] | Activity [3] | IC50 [4] [µM] | IC50 [5] [µM] | IC50 [6] [µM] | IC50 [7] [µM] | Activity [8] | SMILES
inactive | Dose-dependent effect | Dose-dependent effect |  |  |  |  |  | C/C(=C\Cn1c[n+](C)c2ncnc(N)c21)CC[C@]1(C)[C@@H](C)CC[C@@]2(C)C(COC(=O)c3cc(Br)c[nH]3)=CCC[C@@H]12
inactive |  | Dose-dependent effect | > 19 | > 19 | > 19 | > 19 | Dose-dependent effect | C/C(=C\Cn1c[n+](C)c2ncnc(N)c21)CC[C@]1(C)[C@@H](C)CC[C@@]2(C)C(COC(=O)c3ccc[nH]3)=CCC[C@@H]12
 |  |  | 13 | > 16 | > 16 | 15 |  | C/C(=C\C[n+]1cn(C)c2ncnc(N)c21)CC[C@]1(C)[C@@H](C)CC[C@@]2(C)C(COC(=O)c3cc(Br)c[nH]3)=CCC[C@@H]12
